The experiment deals with DNA polymerase. The conditions noted are these: for 2SS characteristics: two slow step character, equals K1/K2; for K1 (S-1) / K2 (S-1): two slow step results, single molecule DNA sequencing, cyanine dye conjugate. From the text:
In some cases, the system will have four kinetically observable (slow) reaction steps, two slow steps in a bright phase and two slow steps in a dark phase.

Regarding `CC1(C)C(/C=C/C=C/C=C2/N(CCCCCC(=O)NC(CCCCN)C(=O)NC(CCCCN)C(=O)NCCCCCCOP(=O)(O)OP(=O)(O)OP(=O)(O)OC[C@H]3O[C@@H](n4ccc(N)nc4=O)CC3O)c3ccc4c(S(=O)(=O)O)cc(S(=O)(=O)O)cc4c3C2(C)C)=[N+](CCCS(=O)(=O)[O-])c2ccc3c(S(=O)(=O)O)cc(S(=O)(=O)O)cc3c21` (stereo partly drawn) [2Lys-tri-phosphate], the 2SS characteristics turned out to be 6.5, the “K1 (S-1)” value was 2.645 S-1 and the “K2 (S-1)” value was determined as 0.406 S-1.

In the case of `CC1(C)C(/C=C/C=C/C=C2/N(CCCCCC(=O)NC(CCC(=O)O)C(=O)NC(CCC(=O)O)C(=O)NCCCCCCOP(=O)(O)OP(=O)(O)OP(=O)(O)OC[C@H]3O[C@@H](n4ccc(N)nc4=O)CC3O)c3ccc4c(S(=O)(=O)O)cc(S(=O)(=O)O)cc4c3C2(C)C)=[N+](CCCS(=O)(=O)[O-])c2ccc3c(S(=O)(=O)O)cc(S(=O)(=O)O)cc3c21` (stereo partly drawn) [2Glu-tri-phosphate], the 2SS characteristics is reported as 7.3, the “K1 (S-1)” value is 7.898 S-1 and the “K2 (S-1)” value worked out at 1.082 S-1.

The values are drawn from patent US9499862B2, “Phospholinked dye analogs with an amino acid linker” (Pacific Biosciences of California, Inc., priority 2010, dated 2016).
